Columns and labels:
[1] = test system: E. coli BT3/pACYCSP+pTVHVF1 strain; experiment: Growth of E. coli BT3/pACYCSP+pTVHVF1 (variant barley ferrochelatase) with herbicidal compound; type: cell-based, Escherichia coli; conditions: 18 hours culture, Table 11
From the text: According to the description of Gibson, L. C. D. et al., Proc. Natl. Acad. Sci. USA, 92; p 1941 (1995), the DNA fragment containing bchH gene prepared in Example 1 was digested with the restriction enzymes NdeI and BglII. The resultant DNA fragment was inserted between NdeI restriction site and BamHI restriction site of expression vector pET11a (manufactured by Stratagene) to obtain plasmid pETBCH (FIG. 1). This plasmid pETBCH was introduced into E. coli BL21(DE3) strain competent cells (manufactured by Stratagene) according to the manual attached to the competent cells to obtain E. coli BL21(DE3)/pETBCH strain. The strain was inoculated into 1.5 ml LB liquid culture medium (1% tryptone, 0.5% yeast extract, 0.5% NaCl) containing 100 μg/ml ampicillin in a tube (14×10 mm), and the tube was covered with aluminum foil (hereinafter referred to as dark conditions), cultured with shaking at 37° C. under light of fluorescent lamp (about 8000 lux). When the absorbance at 600 nm of the liquid culture medium became about 0.6, isopropyl β-D-thiogalactopyranoside (IPTG) was added to the liquid culture medium so that the final concentration was 0.4 mM, and the culture was continued for about additional 20 hours. […] In contrast to this, when E. coli BL21(DE3)/pETBCH strain was cultured according to the same manner (with IPTG) except that the tube was not covered with aluminum foil (hereinafter referred to as light conditions), E. coli grew and turned red as above.
A plasmid bearing barley ferrochelatase gene was prepared by the method described in Miyamoto. K. et al. Plant Physiol. 105; p 769 (1994). The resultant plasmid was digested with restriction enzymes NspI and EcoRI to obtain the DNA fragment containing the gene encoding barley ferrochelatase whose signal sequence had been deleted (hereinafter referred to as the variant barley ferrochelatase). This DNA fragment was inserted between SphI restriction site and EcoRI restriction site of plasmid pTV119N (manufactured by Takara Shuzo Co., Ltd.) to construct plasmid pTVHVF1 (FIG. 12). […]
These E. coli strains were inoculated into YPT medium containing 10 or 1 ppm of the PPO inhibitory-type herbicidal compound represented by Structure 8, 100 μg/ml ampicillin, 15 μg/ml chloramphenicol, 10 μg/ml kanamycin, 10 μg/ml hemin and 50 μg/ml aminolevulinic acid, cultured under dark conditions or light conditions according to the same manner as in Example 2. Then, 18 hours after initiation of culture, the absorbance of liquid culture medium was measured at 600 nm. By taking the absorbance of the medium without the herbicidal compound as 1, the relative value of the absorbance of the medium containing the herbicidal compound was calculated.

[2] = test system: tobacco bearing introduced both Arabidopsis thaliana PPO(A220V) gene and gene encoding the variant tobacco chelatase subunit; experiment: Leaf piece chlorophyll test, tobacco with PPO(A220V) gene and variant tobacco chelatase subunit gene; type: in vivo; conditions: 2.0 ppm, 7 days in a light place, Example 37
From the text: Tobacco leaf pieces cultured sterilely were infected with the Agrobacterium strain and, according to the same manner as in Example 5, tobacco bearing the introduced both Arabidopsis thaliana PPO(A220V) gene and gene encoding the variant tobacco chelatase subunit was obtained.
Leaves of the tobacco bearing the introduced both Arabidopsis thaliana PPO(A220V) gene and gene encoding the variant tobacco chelatase subunit produced in Example 36, those bearing the introduced Arabidopsis thaliana PPO(A220V) gene produced in Example 35, and the control recombinant tobacco leaves produced in Example 5were collected, and each leaf was divided into the right and left equivalent pieces along the main vein. One of the pieces was treated with an aqueous solution containing 2.0 ppm PPO inhibitory-type herbicidal compound of Structure 8, while the other piece was not treated with the compound. These leaf pieces were placed on MS medium containing 0.8% agar and allowed to stand at room temperature for 7 days in a light place. Then, each leaf piece was ground in 5 ml of 80% aqueous acetone solution in a mortar with a pestle to extract chlorophyll. The extract was diluted 10 times with 80% aqueous acetone solution and the absorbance was measured at 750 nm, 663 nm and 645 nm to calculate the total chlorophyll content according to the method described by Macknney G., J. Biol. Chem. (1941) 140, p 315. […]

SMILES: C#CCOc1cc(N2C(=O)C3=C(CCCC3)C2=O)c(F)cc1Cl [Structure 8]
- Relative absorbance ([1]; in the dark, 1 ppm): 0.96
- Relative absorbance ([1]; in the dark, 10 ppm): 0.94
- Relative absorbance ([1]; in the light, 1 ppm): 0.94
- Relative absorbance ([1]; in the light, 10 ppm): 0.39
- resistant level [2]: 61.6%
